US11180462B2, “Microbiocidal oxadiazole derivatives” (SYNGENTA PARTICIPATIONS AG, priority 2015, dated 2021)

Assays:
[1] = system: Puccinia recondita f. Sp. Tritici; assay: Fungicidal activity against Puccinia recondita f. sp. tritici / wheat / leaf disc preventative (brown rust); assay type: in vivo; details: foliar, 200 ppm in the applied formulation, wheat leaf segments, preventative, compared to untreated control leaf disks, read-out: disease control
Procedure, shortened: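 Compound application precedes infection: segments of wheat cv. Kanzler, sprayed at 200 ppm, are inoculated with a spore suspension after 1 day. Incubation is at 19° C. with 75% relative humidity and 12 h light/12 h darkness, and control versus untreated leaves is rated 7 to 9 days post-application.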

[2] = system: Puccinia recondita f. Sp. Tritici; assay: Fungicidal activity against Puccinia recondita f. sp. tritici / wheat / leaf disc curative (brown rust); assay type: in vivo; details: foliar, 24 h, 200 ppm in the applied formulation, wheat leaf segments, curative (applied 1 day after inoculation), compared to untreated control leaf disks, read-out: disease control
Procedure, shortened: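 Curative leaf-segment test: compound diluted in water applied 1 day after spore inoculation of cv. Kanzler wheat segments on agar. Conditions 19° C, 75% RH, 12 h/12 h light cycle. Read-out: % disease control relative to untreated check, 6 to 8 days after application.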

[3] = system: Phakopsora Pachyrhizi; assay: Fungicidal activity against Phakopsora pachyrhizi / soybean / leaf disc preventative (Asian soybean rust); assay type: in vivo; details: foliar, 200 ppm in the applied formulation, soybean leaf disks, compared to untreated control leaf disks, read-out: disease control
Procedure, shortened: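 Preventative soybean leaf-disc test: discs on water agar sprayed with diluted formulated compound, inoculated one day later with spores on the lower surface. Held 24–36 h dark at 20°C, 75% rh, then 12 h light/day; percent disease control versus untreated discs scored 12–14 days after application.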

[4] = system: Glomerella lagenarium (Colletotrichum lagenarium); assay: Fungicidal activity against Glomerella lagenarium (Colletotrichum lagenarium) liquid culture / cucumber / preventative (anthracnose); assay type: cell-based; details: Colletotrichum orbiculare; 20 ppm in the applied formulation; liquid culture (PDB), growth inhibition measured photometrically after 3 to 4 days; compared to untreated control; read-out: disease control
Procedure, shortened: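 Photometric read-out of fungal growth after 2–7 days, expressed as percent antifungal activity versus untreated check. Cryo-stored conidia in PDB; compound at 20 ppm; dark, 24 °C, 96% RH.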

C=CCN(Cc1ccc(-c2noc(C(F)(F)F)n2)cc1)C(=O)C1CCCO1 (stereo not shown) [Compound 1.489, N-allyl-N-[[4-[5-(trifluoromethyl)-1,2,4-oxadiazol-3-yl]phenyl]methyl]-tetrahydrofuran-2-carboxamide]
≥ 80%: pest or weed control at 200 ppm [1] | pest or weed control at 200 ppm [2] | pest or weed control at 200 ppm [3] | inhibition of growth at 20 ppm [4]

O=C(C1CC1(F)F)N(O)Cc1ccc(-c2noc(C(F)(F)F)n2)cc1 (stereo not shown) [Compound 1.753, 2,2-difluoroN-hydroxy-N-[[4-[5-(trifluoromethyl)-1,2,4-oxadiazol-3-yl]phenyl]methyl]-cyclopropane-carboxamide]
≥ 80%: pest or weed control at 200 ppm [1] | pest or weed control at 200 ppm [2] | pest or weed control at 200 ppm [3] | inhibition of growth at 20 ppm [4]

CCN(Cc1ccc(-c2noc(C(F)(F)F)n2)cc1)C(=O)C1CC1F (stereo not shown) [Compound 1.511, N-ethyl-2-fluoro-N-[[4-[5-(trifluoromethyl)-1,2,4-oxadiazol-3-yl]phenyl]methyl]-cyclopropane-carboxamide]
≥ 80%: pest or weed control at 200 ppm [1] | pest or weed control at 200 ppm [2] | pest or weed control at 200 ppm [3] | inhibition of growth at 20 ppm [4]

CON(C(=O)C1CCCO1)C(C)c1ccc(-c2noc(C(F)(F)F)n2)cc1 (stereo not shown) [Compound 1.273, N-methoxy-N-[1-[4-[5-(trifluoromethyl)-1,2,4-oxadiazol-3-yl]phenyl]ethyl]-tetrahydrofuran-2-carboxamide]
≥ 80%: pest or weed control at 200 ppm [1] | pest or weed control at 200 ppm [2] | pest or weed control at 200 ppm [3] | inhibition of growth at 20 ppm [4]

C=CCN(Cc1ccc(-c2noc(C(F)(F)F)n2)cc1)C(=O)CC [Compound 1.477, N-allyl-N-[[4-[5-(trifluoromethyl)-1,2,4-oxadiazol-3-yl]phenyl]methyl]-propanamide]
≥ 80%: pest or weed control at 200 ppm [1] | pest or weed control at 200 ppm [2] | pest or weed control at 200 ppm [3] | inhibition of growth at 20 ppm [4]

O=C(C1CCC1)N(CCO)Cc1ccc(-c2noc(C(F)(F)F)n2)cc1 [Compound 1.714, N-(2-hydroxyethyl)-N-[[4-[5-(trifluoromethyl)-1,2,4-oxadiazol-3-yl]phenyl]methyl]-cyclobutane-carboxamide]
≥ 80%: pest or weed control at 200 ppm [1] | pest or weed control at 200 ppm [2] | pest or weed control at 200 ppm [3] | inhibition of growth at 20 ppm [4]

O=C(C1CC1)N(Cc1ccc(-c2noc(C(F)(F)F)n2)cc1)C1CC1 [Compound 1.149, N-cyclopropyl-N-[[4-[5-(trifluoromethyl)-1,2,4-oxadiazol-3-yl]phenyl]methyl]-cyclopropane-carboxamide]
≥ 80%: pest or weed control at 200 ppm [1] | pest or weed control at 200 ppm [2] | pest or weed control at 200 ppm [3] | inhibition of growth at 20 ppm [4]

CCC(=O)N(Cc1ccc(-c2noc(C(F)(F)F)n2)c(F)c1F)OC [Compound 1.585, N-[[2,3-difluoro-4-[5-(trifluoromethyl)-1,2,4-oxadiazol-3-yl)phenyl]methyl)-N-methoxy-propanamide]
≥ 80%: pest or weed control at 200 ppm [1] | pest or weed control at 200 ppm [2] | pest or weed control at 200 ppm [3] | inhibition of growth at 20 ppm [4]

CON(Cc1ccc(-c2noc(C(F)(F)F)n2)cc1)C(=O)NC(C)(C)C [Compound 3.19, 3-tert-butyl-1-methoxy-1-[[4-[5-(trifluoromethyl)-1,2,4-oxadiazol-3-yl]phenyl]methyl]urea]
≥ 80%: pest or weed control at 200 ppm [1] | pest or weed control at 200 ppm [2] | pest or weed control at 200 ppm [3] | inhibition of growth at 20 ppm [4]

CN(Cc1ccc(-c2noc(C(F)(F)F)n2)cc1)C(=O)C1CC1(F)F (stereo not shown) [Compound 1.523, 2,2-difluoro-N-methyl-N-[[4-[5-(trifluoromethyl)-1,2,4-oxadiazol-3-yl]phenyl]methyl]-cyclopropane-carboxamide]
≥ 80%: pest or weed control at 200 ppm [1] | pest or weed control at 200 ppm [2] | pest or weed control at 200 ppm [3] | inhibition of growth at 20 ppm [4]
